# Tests used:
# [1] = molecular target: Farnesyl Protein Transferase (FPT) (Homo sapiens, UniProt P49356); details: cited from earlier work
# Ras-3T3 tumors = details: mice bearing Ras-3T3 tumors with hypercalcemia (MAH); cited from earlier work
# Female Rats [2] = assay: One-month exploratory nephrotoxicity study in female rats: urine calcium and phosphorus excretion; assay type: in vivo, rat; details: for Mean calcium excretion / Mean phosphorus excretion: female rats, 180 mg/kg daily
# Source text: (§1) A study was undertaken to assess the potential nephrotoxicity of the compound of Formula 1 in rats. The rats were 6 week old females weighing 120.7 to 173.5 g at dosing initiation.
# (§2) The study design is summarized below in Tables 1-3: […]
# Female Rats [3] = assay: One-month exploratory nephrotoxicity study in female rats: serum ADH; assay type: in vivo, rat; details: for Mean serum ADH: female rats, 180 mg/kg daily
# Source text: as §1, §2
# Female Rats [4] = assay: One-month exploratory nephrotoxicity study in female rats: serum PTH; assay type: in vivo, rat; details: for Mean serum PTH: female rats, 180 mg/kg daily
# Source text: as §1, §2
# Female Rats [5] = assay: One-month exploratory nephrotoxicity study in female rats: urine volume and osmolality; assay type: in vivo, rat; details: for Mean urine osmolality / Mean urine volume: female rats, 180 mg/kg daily
# Source text: as §1, §2
# rat parathyroid glands = assay: Micrographic analysis (light and electron microscopy) of rat parathyroid glands; assay type: in vivo
# Source text: Electron photomicrographs of the right parathyroid gland from two control rats sacrificed on Day 13 (Nos. 26F and 29F), two control rats sacrificed on Day 29 (Nos. 39F and 40F) and two Formula 1-dosed rats sacrificed on Day 29 (Nos. 76F and 77F) were examined for ultrastructural changes. […] A single rounded parathyroid epithelial cell in animal No. 77F appeared apoptotic with condensed chromatin and intact mitochondria and contained numerous vesicles similar to those previously described. The apoptotic cell is consistent with the single cell necrosis observed at the light microscopic level.
# [6] = within 6 days of dosing at 180 mg/kg, rats
# [7] = electron photomicrographs, dosed rats
# [8] = electron photomicrographs, two dosed rats sacrificed on Day 29
smiles,measurement,setting,value
NC(=O)N1CCC(CC(=O)N2CCC([C@H]3c4ncc(Br)cc4CCc4cc(Cl)cc(Br)c43)CC2)CC1 [SCH66336],FPT mediated farnesylation of the Ras protein,[1],inhibit
COC(=O)[C@H](CCSC)NC(=O)[C@H](/C=C\[C@@H](/C=C/[C@@H](N)CS)C(C)C)Cc1ccccc1 [Formula B-1086],serum PTHRP levels,Ras-3T3 tumors,reduction
same,serum calcium,Ras-3T3 tumors,normalization
NC(=O)N1CCC(CC(=O)N2CCC(C3c4ncc(Br)cc4CCc4cc(Cl)cc(Br)c43)CC2)CC1 (centres unmarked) [Formula 1],Mean calcium excretion,"Female Rats [2]; Day 2, urine",5.65 mg/kg/24 hours
same,Mean phosphorus excretion,"Female Rats [2]; Day 2, urine",55.9 mg/kg/24 hours
same,Mean calcium excretion,"Female Rats [2]; Day 6, urine",33 mg/kg/24 hours
same,Mean phosphorus excretion,"Female Rats [2]; Day 6, urine",13.5 mg/kg/24 hours
same,Mean calcium excretion,"Female Rats [2]; Day 13, urine",20.7 mg/kg/24 hours
same,Mean phosphorus excretion,"Female Rats [2]; Day 13, urine",12.1 mg/kg/24 hours
same,Mean calcium excretion,"Female Rats [2]; Day 29, urine",19.2 mg/kg/24 hours
same,Mean phosphorus excretion,"Female Rats [2]; Day 29, urine",7.3 mg/kg/24 hours
same,calcium excretion in the urine (change vs control),Female Rats [2]; [6],increased
same,phosphorus excretion (change vs control),Female Rats [2]; [6],decreased
same,Mean serum ADH,Female Rats [3]; Day 2,350 pg/mL
same,Mean serum ADH,Female Rats [3]; Day 6,513 pg/mL
same,Mean serum ADH,Female Rats [3]; Day 13,547 pg/mL
same,Mean serum ADH,"Female Rats [3]; Day 29, water consumption had increased at this timepoint",616^1 pg/ml
same,antidiuretic hormone (ADH) concentrations (change vs control),Female Rats [3]; rats dosed at 180 mg/kg,increases
same,Mean serum PTH,Female Rats [4]; Day 2,60 ng/mL
same,Mean serum PTH,Female Rats [4]; Day 6,51 ng/mL
same,Mean serum PTH,Female Rats [4]; Day 13,68 ng/mL
same,Mean serum PTH,Female Rats [4]; Day 29,44 ng/mL
same,serum PTH (change vs control),Female Rats [4]; rats dosed at 180 mg/kg,decrease
same,rats evaluated with lower PTH serum concentrations than the control rats,"Female Rats [4]; within 28 days, 180 mg/kg",5 out of 5
same,Mean urine osmolality,Female Rats [5]; Day 2,646 mOsm/kg
same,Mean urine volume,Female Rats [5]; Day 2,124 ml/kg/24 hours
same,Mean urine osmolality,Female Rats [5]; Day 6,646 mOsm/kg
same,Mean urine volume,Female Rats [5]; Day 6,195 ml/kg/24 hours
same,Mean urine osmolality,Female Rats [5]; Day 13,655 mOsm/kg
same,Mean urine volume,Female Rats [5]; Day 13,177 ml/kg/24 hours
same,Mean urine osmolality,Female Rats [5]; Day 29,606 mOsm/kg
same,Mean urine volume,Female Rats [5]; Day 29,166 ml/kg/24 hours
same,"condition suggested by urine osmolality, urine volume and ADH changes",Female Rats [5]; rats dosed at 180 mg/kg,nephrogenic diabetes insipidus
same,urine osmolality (change vs control),Female Rats [5]; rats dosed at 180 mg/kg,Decreases
same,urine volume (change vs control),Female Rats [5]; rats dosed at 180 mg/kg,increases
same,"changes indicating chronic stimulation of parathyroid (rough endoplasmic reticulum, Golgi apparatus)",rat parathyroid glands; [7],no changes indicating chronic stimulation
same,exhaustion vacuoles in parathyroid cells,rat parathyroid glands; [7],no evidence of exhaustion vacuoles
same,Ultrastructure of parathyroid chief cells: cell borders,rat parathyroid glands; [8],"less conspicuous cell borders with fewer, less distinctive cytoplasmic projections"
same,Ultrastructure of parathyroid chief cells: cytoplasm content,rat parathyroid glands; [8],"numerous, generally membrane-bound, vesicles"
same,number of myeloid bodies and fat globules in parathyroid cells,rat parathyroid glands; [8],minimally increased
same,Microscopic evaluation of the parathyroid glands,rat parathyroid glands; rats dosed with 180 mg/kg,cytoplasmic vacuolation

# Source: patent publication US20040082588A1, “Methods for treating disorders of calcium homeostasis” (Schering Corporation, priority 2002, published 2004)
